Reference: ChEMBL document CHEMBL4765295, “Synthesis, pharmacological profile and 2D-QSAR studies of curcumin-amino acid conjugates as potential drug candidates” (Eur J Med Chem, 2020)
pIC50: −log10 of the molar value. “And” between values parts separate entries of the source, which are not always exact repeats. Equal entries are not always repeated.

test system: Rattus norvegicus; assay: Antiinflammatory activity in Wistar rat model of carrageenan-induced paw edema assessed as reduction in thickness of paw edema at 10 mg/kg, ip pretreated for 1 hr followed by carrageenan challenge and measured after 1 hr (reference value: 2.41 +/-0.05 mm); type: functional; conditions: time 1 hr after carrageenan

SMILES	Activity
COc1cc(/C=C/C(=O)/C=C(O)/C=C/c2ccc(OC(=O)[C@@H](N)C(C)C)c(OC)c2)ccc1OC(=O)[C@@H](N)C(C)C.Cl.Cl	0.97 mm

test system: Rattus norvegicus; assay: Anti-inflammatory activity in Wistar rat assessed as inhibition of carrageenan-induced paw edema at 10 mg/kg, ip pretreated for 1 hr followed by carrageenan challenge and measured after 1 hr relative to control (reference value: 0.00 +/-0.02 %); type: functional; conditions: time 2 hrs

SMILES	inhibition in vivo at 10 mg/kg
COc1cc(/C=C/C(=O)/C=C(O)/C=C/c2ccc(OC(=O)[C@@H](N)C(C)C)c(OC)c2)ccc1OC(=O)[C@@H](N)C(C)C.Cl.Cl	60%

test system: Rattus norvegicus; assay: Antiinflammatory activity in Wistar rat model of carrageenan-induced paw edema assessed as reduction in thickness of paw edema at 10 mg/kg, ip pretreated for 1 hr followed by carrageenan challenge and measured after 2 hrs (reference value: 2.06 +/-0.09 mm); type: functional; conditions: time 3 hrs

SMILES	Activity
COc1cc(/C=C/C(=O)/C=C(O)/C=C/c2ccc(OC(=O)[C@@H](N)C(C)C)c(OC)c2)ccc1OC(=O)[C@@H](N)C(C)C.Cl.Cl	1.4 mm

test system: Rattus norvegicus; assay: Anti-inflammatory activity in Wistar rat assessed as inhibition of carrageenan-induced paw edema at 10 mg/kg, ip pretreated for 1 hr followed by carrageenan challenge and measured after 2 hr relative to control (reference value: 0.00 +/-0.03 %); type: functional; conditions: time 3 hrs

SMILES	inhibition in vivo at 10 mg/kg
COc1cc(/C=C/C(=O)/C=C(O)/C=C/c2ccc(OC(=O)[C@@H](N)C(C)C)c(OC)c2)ccc1OC(=O)[C@@H](N)C(C)C.Cl.Cl	50%

test system: Rattus norvegicus; assay: Antiinflammatory activity in Wistar rat model of carrageenan-induced paw edema assessed as reduction in thickness of paw edema at 10 mg/kg, ip pretreated for 1 hr followed by carrageenan challenge and measured after 3 hrs (reference value: 1.79 +/-0.07 mm); type: functional; conditions: time 4 hrs

SMILES	Activity
COc1cc(/C=C/C(=O)/C=C(O)/C=C/c2ccc(OC(=O)[C@@H](N)C(C)C)c(OC)c2)ccc1OC(=O)[C@@H](N)C(C)C.Cl.Cl	0.93 mm

test system: Rattus norvegicus; assay: Anti-inflammatory activity in Wistar rat assessed as inhibition of carrageenan-induced paw edema at 10 mg/kg, ip pretreated for 1 hr followed by carrageenan challenge and measured after 3 hr relative to control (reference value: 0.00 +/-0.1 %); type: functional; conditions: time 4 hrs

SMILES	inhibition in vivo at 10 mg/kg
COc1cc(/C=C/C(=O)/C=C(O)/C=C/c2ccc(OC(=O)[C@@H](N)C(C)C)c(OC)c2)ccc1OC(=O)[C@@H](N)C(C)C.Cl.Cl	48%

test system: Rattus norvegicus; assay: Antiinflammatory activity in Wistar rat model of carrageenan-induced paw edema assessed as reduction in thickness of paw edema at 10 mg/kg, ip pretreated for 1 hr followed by carrageenan challenge and measured after 4 hrs (reference value: 1.40 +/-0.10 mm); type: functional; conditions: time 5 hrs

SMILES	Activity
COc1cc(/C=C/C(=O)/C=C(O)/C=C/c2ccc(OC(=O)[C@@H](N)C(C)C)c(OC)c2)ccc1OC(=O)[C@@H](N)C(C)C.Cl.Cl	0.75 mm

test system: Rattus norvegicus; assay: Anti-inflammatory activity in Wistar rat assessed as inhibition of carrageenan-induced paw edema at 10 mg/kg, ip pretreated for 1 hr followed by carrageenan challenge and measured after 4 hr relative to control (reference value: 0.00 +/-0.4 %); type: functional; conditions: time 5 hrs

SMILES	inhibition in vivo at 10 mg/kg
COc1cc(/C=C/C(=O)/C=C(O)/C=C/c2ccc(OC(=O)[C@@H](N)C(C)C)c(OC)c2)ccc1OC(=O)[C@@H](N)C(C)C.Cl.Cl	46%

test system: Rattus norvegicus; assay: Antiinflammatory activity in Wistar rat model of carrageenan-induced paw edema assessed as reduction in thickness of paw edema at 10 mg/kg, ip pretreated for 1 hr followed by carrageenan challenge and measured after 24 hrs (reference value: 0.83 +/-0.08 mm); type: functional; conditions: time 25 hrs

SMILES	Activity
COc1cc(/C=C/C(=O)/C=C(O)/C=C/c2ccc(OC(=O)[C@@H](N)C(C)C)c(OC)c2)ccc1OC(=O)[C@@H](N)C(C)C.Cl.Cl	0.71 mm

test system: Rattus norvegicus; assay: Anti-inflammatory activity in Wistar rat assessed as inhibition of carrageenan-induced paw edema at 10 mg/kg, ip pretreated for 1 hr followed by carrageenan challenge and measured after 24 hr relative to control (reference value: 0.00 +/-0.3 %); type: functional; conditions: time 25 hrs

SMILES	inhibition in vivo at 10 mg/kg
COc1cc(/C=C/C(=O)/C=C(O)/C=C/c2ccc(OC(=O)[C@@H](N)C(C)C)c(OC)c2)ccc1OC(=O)[C@@H](N)C(C)C.Cl.Cl	14%

test system: Rattus norvegicus; assay: Anti-inflammatory activity in Wistar rat assessed as inhibition of carrageenan-induced paw edema at 10 mg/kg, ip pretreated for 1 hr followed by carrageenan challenge and measured after 4 hr relative to indomethacin; type: functional; conditions: time 5 hrs

SMILES	inhibition in vivo at 10 mg/kg
COc1cc(/C=C/C(=O)/C=C(O)/C=C/c2ccc(OC(=O)[C@@H](N)C(C)C)c(OC)c2)ccc1OC(=O)[C@@H](N)C(C)C.Cl.Cl	53%

test system: Splenocyte; assay: Immunomodulatory activity in Swiss albino mouse splenocytes assessed as cell viability at 10 uM by measuring stimulation index incubated for 72 hrs in presence of mitogenic stimulus phytohaemagglutinin by MTT assay (reference value: 1.00 +/- 0.24); type: functional; conditions: not given

SMILES	Activity_index
COc1cc(/C=C/C(=O)/C=C(O)/C=C/c2ccc(OC(=O)[C@@H](N)C(C)C)c(OC)c2)ccc1OC(=O)[C@@H](N)C(C)C.Cl.Cl	2.05

test system: Splenocyte; assay: Immunomodulatory activity in Swiss albino mouse splenocytes assessed as cell viability at 10 uM by measuring inhibition of stimulation index incubated for 72 hrs in presence of mitogenic stimulus phytohaemagglutinin by MTT assay relative to indomethacin; type: functional; conditions: read-out: Activity

SMILES	viability at 10 µM
COc1cc(/C=C/C(=O)/C=C(O)/C=C/c2ccc(OC(=O)[C@@H](N)C(C)C)c(OC)c2)ccc1OC(=O)[C@@H](N)C(C)C.Cl.Cl	59%

test system: Peritoneal macrophage; assay: Antiinflammatory activity in […] mouse Peritoneal macrophages assessed as reduction in LPS-induced NO production by measuring reduction in stimulation index at 10 uM preincubated for 1 hr followed by LPS stimulation measured after 24 hrs by Griess method (reference value: 27.31 +/- 2.56 uM); type: functional; conditions: time 25 hrs

SMILES	Activity
COc1cc(/C=C/C(=O)/C=C(O)/C=C/c2ccc(OC(=O)[C@@H](N)C(C)C)c(OC)c2)ccc1OC(=O)[C@@H](N)C(C)C.Cl.Cl	20.65 µM

test system: Peritoneal macrophage; assay: Antiinflammatory activity in […] mouse Peritoneal macrophages assessed as inhibition of LPS-induced NO production at 10 uM preincubated for 1 hr followed by LPS stimulation measured after 24 hrs by Griess method relative to control (reference value: 0.0 %); type: functional; design: scale not given: the % may be the effect or the level left; conditions: time 25 hrs

SMILES	Activity
COc1cc(/C=C/C(=O)/C=C(O)/C=C/c2ccc(OC(=O)[C@@H](N)C(C)C)c(OC)c2)ccc1OC(=O)[C@@H](N)C(C)C.Cl.Cl	24.37%

test system: Staphylococcus aureus; assay: Antibacterial activity against Staphylococcus aureus ATCC 25923 incubated for 18 hrs by agar dilution method; type: functional; conditions: not given

MIC	SMILES
0.25 µg/mL and 0.391 µM	COc1cc(/C=C/C(=O)/C=C(O)/C=C/c2ccc(OC(=O)[C@@H](N)C(C)C)c(OC)c2)ccc1OC(=O)[C@@H](N)C(C)C.Cl.Cl

test system: Streptococcus pyogenes; assay: Antibacterial activity against Streptococcus pyogenes ATCC 19615 incubated for 18 hrs by agar dilution method; type: functional; conditions: not given

MIC	SMILES
0.125 µg/mL and 0.195 µM	COc1cc(/C=C/C(=O)/C=C(O)/C=C/c2ccc(OC(=O)[C@@H](N)C(C)C)c(OC)c2)ccc1OC(=O)[C@@H](N)C(C)C.Cl.Cl

test system: Salmonella typhimurium; assay: Antibacterial activity against Salmonella typhimurium ATCC 19430 incubated for 18 hrs by agar dilution assay; type: functional, Salmonella enterica subsp. enterica serovar Typhimurium; conditions: Salmonella enterica

MIC	SMILES
0.125 µg/mL and 0.195 µM	COc1cc(/C=C/C(=O)/C=C(O)/C=C/c2ccc(OC(=O)[C@@H](N)C(C)C)c(OC)c2)ccc1OC(=O)[C@@H](N)C(C)C.Cl.Cl

test system: Pseudomonas aeruginosa; assay: Antibacterial activity against Pseudomonas aeruginosa ATCC 27853 incubated for 18 hrs by agar dilution assay; type: functional; conditions: not given

MIC	SMILES
0.25 µg/mL and 0.391 µM	COc1cc(/C=C/C(=O)/C=C(O)/C=C/c2ccc(OC(=O)[C@@H](N)C(C)C)c(OC)c2)ccc1OC(=O)[C@@H](N)C(C)C.Cl.Cl

test system: Candida albicans; assay: Antifungal activity against Candida albicans incubated for 18 to 24 hrs by CLSI method; type: functional; conditions: time 18-24 hrs

MIC	SMILES
0.125 µg/mL and 0.195 µM	COc1cc(/C=C/C(=O)/C=C(O)/C=C/c2ccc(OC(=O)[C@@H](N)C(C)C)c(OC)c2)ccc1OC(=O)[C@@H](N)C(C)C.Cl.Cl

test system: A549; assay: Antiproliferative activity against human A549 cells assessed as inhibition of cell growth after 72 hrs by MTT assay; type: functional, cell-based; conditions: A549, 72 h

pIC50	SMILES
4.69	COc1cc(/C=C/C(=O)/C=C(O)/C=C/c2ccc(OC(=O)[C@@H](N)C(C)C)c(OC)c2)ccc1OC(=O)[C@@H](N)C(C)C.Cl.Cl

test system: MCF7; assay: Antiproliferative activity against human MCF7 cells assessed as inhibition of cell growth after 72 hrs by MTT assay; type: functional, cell-based; conditions: MCF7, 72 h

pIC50	SMILES
4.98	COc1cc(/C=C/C(=O)/C=C(O)/C=C/c2ccc(OC(=O)[C@@H](N)C(C)C)c(OC)c2)ccc1OC(=O)[C@@H](N)C(C)C.Cl.Cl

test system: PC-3; assay: Antiproliferative activity against human PC3 cells assessed as inhibition of cell growth after 72 hrs by MTT assay; type: functional, cell-based; conditions: PC-3, 72 h

pIC50	SMILES
4.46	COc1cc(/C=C/C(=O)/C=C(O)/C=C/c2ccc(OC(=O)[C@@H](N)C(C)C)c(OC)c2)ccc1OC(=O)[C@@H](N)C(C)C.Cl.Cl
